Where two headings read alike, the source gives them in different places.
Tests used:
[1] = system: MIA PaCa-2 pancreatic cancer cells; experiment: MTT antiproliferative assay, MIA PaCa-2; type: cell-based; conditions: Homo sapiens
[2] = system: DU145 prostate cancer cells; experiment: MTT antiproliferative assay, DU145; type: cell-based; conditions: Homo sapiens
[3] = system: MCF-7 breast cancer cells; experiment: MTT antiproliferative assay, MCF-7; type: cell-based; conditions: Homo sapiens
[4] = system: CaCo-2 colon cancer cells; experiment: MTT antiproliferative assay, CaCo-2; type: cell-based; conditions: Homo sapiens
HL-60 leukemia cells = experiment: MTT antiproliferative assay, HL-60; type: cell-based, human; conditions: Homo sapiens
[5] = system: HeLa cervical cancer cells; experiment: MTT antiproliferative assay, HeLa; type: cell-based; conditions: Homo sapiens, read-out: IC50 HeLa Cervical
[6] = system: MCF-10A mammary epithelial cells; experiment: MTT assay on normal MCF-10A cells; type: cell-based; conditions: Homo sapiens, 48 h, read-out: IC50 MCF-10A Breast (normal cell line)
[7] = system: human peripheral blood mononuclear cells (PBMC); experiment: MTT assay on normal PBMC; type: cell-based; conditions: 48 h, read-out: IC50 PBMC (normal cells)
[8] = MIA PaCa-2, MTT assay, cancer cell line, mean of three independent experiments ± S.E.M., read-out: IC50 MIA PaCa-2 Pancreatic
[9] = DU-145, MTT assay, cancer cell line, mean of three independent experiments ± S.E.M., read-out: IC50 DU145 Prostate
[10] = MCF7, MTT assay, cancer cell line, mean of three independent experiments ± S.E.M., read-out: IC50 MCF-7 Breast
[11] = Caco-2, MTT assay, cancer cell line, mean of three independent experiments ± S.E.M., read-out: IC50 CaCo-2 Colon
[12] = HL-60, MTT assay, cancer cell line, mean of three independent experiments ± S.E.M., read-out: IC50 HL-60 Leukemia
[13] = MTT assay, cancer cell line, mean of three independent experiments ± S.E.M.

Row | SMILES | IC50 [1, 8] [µM] | IC50 [2, 9] [µM] | IC50 [3, 10] [µM] | IC50 [4, 11] [µM] | IC50 (HL-60 leukemia cells; [12]) [µM] | IC50 [5, 13] [µM] | IC50 ([6]; MTT assay, normal cells) [µM] | IC50 ([7]; MTT assay, normal cells) [µM] | melting point [°C] | IC50 ([1]; MIA PaCa-2, read-out: IC50 MIA PaCa-2 Pancreatic) [µM] | IC50 ([2]; DU-145, read-out: IC50 DU145 Prostate) [µM] | IC50 ([3]; MCF7, read-out: IC50 MCF-7 Breast) [µM] | IC50 ([4]; Caco-2, read-out: IC50 CaCo-2 Colon) [µM] | IC50 (HL-60 leukemia cells; HL-60, read-out: IC50 HL-60 Leukemia) [µM] | IC50 [5] [µM] | IC50 [6] [µM] | IC50 [7] [µM]
1 | COc1cc(CO)ccc1OC1OC(COC(=O)c2ccccc2)C(O)C(O)C1O (centres unmarked) [Compound 9b, (6-(4-(hydroxymethyl)-2-methoxyphenoxy)-tetrahydro-3,4,5-trihydroxy-2H-pyran-2-yl)methyl benzoate] | 39.3 ± 1.42 | 37.3 ± 2.54 | 26.4 ± 0.96 | 47.3 ± 1.62 | 22.8 ± 1.3 | 36.7 ± 2.31 | > 100 | > 100 | 187 to 189 |  |  |  |  |  |  |  | 
2 | COc1cc(CO)ccc1OC1OC(COC(=O)c2ccc(C)cc2)C(O)C(O)C1O (centres unmarked) [Compound 9c, (6-(4-(hydroxymethyl)-2-methoxyphenoxy)-tetrahydro-3,4,5-trihydroxy-2H-pyran-2-yl)methyl 4-methylbenzoate] | 13.3 ± 0.25 | 12.4 ± 0.47 | 9.34 ± 0.48 | 13.7 ± 0.63 | 12.5 ± 0.81 | 14.2 ± 0.68 | > 100 | > 100 | 228 to 230 |  |  |  |  |  |  |  | 
3 | COc1cc(OC)cc(C(=O)OCC2OC(Oc3ccc(CO)cc3OC)C(O)C(O)C2O)c1 (centres unmarked) [Compound 9d, (6-(4-(hydroxymethyl)-2-methoxyphenoxy)-tetrahydro-3,4,5-trihydroxy-2H-pyran-2-yl)methyl 3,5-dimethoxybenzoate] | 44.6 ± 2.67 | 42.5 ± 1.51 | 28.3 ± 1.47 | 37.4 ± 1.65 | 25.2 ± 1.92 | 39.5 ± 2.43 | > 100 | > 100 | 199 to 201 |  |  |  |  |  |  |  | 
4 | COc1cc(CO)ccc1OC1OC(COC(=O)c2cc(OC)c(OC)c(OC)c2)C(O)C(O)C1O (centres unmarked) [Compound 9e, (6-(4-(hydroxymethyl)-2-methoxyphenoxy)-tetrahydro-3,4,5-trihydroxy-2H-pyran-2-yl)methyl 3,4,5-trimethoxybenzoate] | 36.3 ± 1.58 | 49.4 ± 1.72 | 33.4 ± 0.76 | 43.5 ± 1.87 | 22.2 ± 1.32 |  | > 100 | > 100 | 168 to 170 |  |  |  |  |  |  |  | 
5 | COc1cc(CO)ccc1OC1OC(COC(=O)c2ccccc2I)C(O)C(O)C1O (centres unmarked) [Compound 9g, (6-(4-(hydroxymethyl)-2-methoxyphenoxy)-tetrahydro-3,4,5-trihydroxy-2H-pyran-2-yl)methyl 2-iodobenzoate] | 23.4 ± 1.53 | 38.32 ± 0.37 | 28.9 ± 0.47 | 43.9 ± 2.52 | 33.5 ± 1.45 | 41.9 ± 3.15 | > 100 | > 100 | 128 to 130 |  |  |  |  |  |  |  | 
6 | COc1cc(CO)ccc1OC1OC(COC(=O)c2cccnc2)C(O)C(O)C1O (centres unmarked) [Compound 9h, (6-(4-(hydroxymethyl)-2-methoxyphenoxy)-tetrahydro-3,4,5-trihydroxy-2H-pyran-2-yl)methyl nicotinate] | 33.9 ± 1.41 | 42.1 ± 1.52 | 33.9 ± 0.48 | 49.04 ± 0.48 | 30.2 ± 1.32 | 35.4 ± 2.2 | > 100 | > 100 | 194 to 196 |  |  |  |  |  |  |  | 
7 | COc1cc(CO)ccc1OC1OC(COC(=O)c2cc([N+](=O)[O-])cc([N+](=O)[O-])c2)C(O)C(O)C1O (centres unmarked) [Compound 9i, (6-(4-(hydroxymethyl)-2-methoxyphenoxy)-tetrahydro-3,4,5-trihydroxy-2H-pyran-2-yl)methyl 3,5-dinitrobenzoate] |  |  |  |  |  |  |  |  | 186 to 188 | 34.8 ± 1.93 | 43.6 ± 1.87 | 34.8 ± 0.51 | 47 ± 2.58 | 29.6 ± 0.83 | 38.4 ± 1.53 | > 100 | > 100
8 | COc1cc(CO)cc(OC)c1OC1OC(COC(=O)c2ccccc2)C(O)C(O)C1O (centres unmarked) [Compound 9j, (6-(4-(hydroxymethyl)-2,6-dimethoxyphenoxy)-tetrahydro-3,4,5-trihydroxy-2H-pyran-2-yl)methyl benzoate] | 45.76 ± 0.42 | 36.8 ± 0.59 | 29.4 ± 0.79 | 33.6 ± 1.51 | 25.6 ± 0.94 | 30.4 ± 2.81 | > 100 | > 100 | 180 to 182 |  |  |  |  |  |  |  | 
9 | COc1cc(CO)cc(OC)c1OC1OC(COC(=O)c2ccc(C)cc2)C(O)C(O)C1O (centres unmarked) [Compound 9k, (6-(4-(hydroxymethyl)-2,6-dimethoxyphenoxy)-tetrahydro-3,4,5-trihydroxy-2H-pyran-2-yl)methyl 4-methylbenzoate] | 23.9 ± 0.74 | 42.8 ± 0.59 | 22 ± 0.72 | 28.3 ± 1.47 | 18.5 ± 0.78 | 26.6 ± 1.37 | > 100 | > 100 | 201 to 203 |  |  |  |  |  |  |  | 
10 | COc1cc(OC)cc(C(=O)OCC2OC(Oc3c(OC)cc(CO)cc3OC)C(O)C(O)C2O)c1 (centres unmarked) [Compound 9l, (6-(4-(hydroxymethyl)-2,6-dimethoxyphenoxy)-tetrahydro-3,4,5-trihydroxy-2H-pyran-2-yl)methyl 3,5-dimethoxybenzoate] | 43.8 ± 1.75 | 49.6 ± 3.59 | 33.8 ± 0.73 | 41.1 ± 1.48 | 31.8 ± 1.58 | 36.3 ± 1.76 | > 100 | > 100 | 131 to 133 |  |  |  |  |  |  |  | 
11 | COc1cc(CO)cc(OC)c1OC1OC(COC(=O)c2ccc(F)cc2)C(O)C(O)C1O (centres unmarked) [Compound 9m, (6-(4-(hydroxymethyl)-2,6-dimethoxyphenoxy)-tetrahydro-3,4,5-tri hydroxy-2H-pyran-2-yl)methyl 4-fluorobenzoate] | 47.3 ± 2.54 | 33.8 ± 1.27 | 28.4 ± 0.69 | 35.6 ± 1.46 | 21.8 ± 1.53 | 34.1 ± 1.83 | > 100 | > 100 | 170 to 172 |  |  |  |  |  |  |  | 
12 | COc1cc(CO)cc(OC)c1OC1OC(COC(=O)c2ccccc2I)C(O)C(O)C1O (centres unmarked) [Compound 9n, (6-(4-(hydroxymethyl)-2,6-dimethoxyphenoxy)-tetrahydro-3,4,5-tri hydroxy-2H-pyran-2-yl)methyl 2-iodobenzoate] | 26.8 ± 1.25 | 37.9 ± 2.48 | 35 ± 1.52 | 45.2 ± 1.79 | 28.3 ± 1.72 | 32.1 ± 1.35 | > 100 | > 100 | 124 to 126 |  |  |  |  |  |  |  | 
13 | COc1cc(C(=O)OC[C@H]2O[C@@H](Oc3ccc(CO)cc3OC)[C@H](O)[C@@H](O)[C@@H]2O)ccc1O [Compound 10, (6-(4-(hydroxymethyl)-2-methoxyphenoxy)-tetrahydro-3,4,5-trihydroxy-2H-pyran-2-yl) methyl 4-hydroxy-3-methoxy benzoate] | 28.3 ± 0.76 | 33.5 ± 1.43 | 24.9 ± 1.67 | 44.7 ± 2.52 | 31.8 ± 1.82 | 39.9 ± 2.6 | > 100 | > 100 | 200 to 202 |  |  |  |  |  |  |  | 
